“Also recorded” adds a separate entry of the source. Where a SMILES comes first, the peptide text is derived from it.
What was measured:
Format in all cases: cell-based
T2 cells = test: 51Cr release assay of peptide-induced human CTLs against peptide-pulsed T2 cells; conditions: CTLs induced from PBMCs of HLA-A2 positive healthy donors, three stimulations
From the text: (§1) Human pancreatic cancer cell line PK8 was kindly provided by the Cell Resource Center for Biomedical Research, Institute of Development, Aging and Cancer, Tohoku University. Human colon cancer cell line HCT116 was kindly provided by Dr. B. Vogelstein, Johns Hopkins University (Baltimore, Md.). Human liver cancer cell line SKHep1 was kindly provided by Professor Kyogo Ito, Kurume University (Kurume, Japan).
PBMCs derived from heparinized blood of HLA-A2 positive pancreatic cancer patients, gastric cancer patients, colorectal cancer patients, or healthy donors were isolated by Ficoll-Conray density gradient centrifugation. […] DCs were pulsed with 20 μg/mL of a candidate peptide in the presence of 4 μg/mL β2-microglobulin (Sigma-Aldrich, St. Louis, Mo., USA) for two hours at 37° C. in AIM-V (Invitrogen) containing 2% heat-inactivated autologous plasma. These DCs were then irradiated (40 Gy) and incubated with CD8 positive cells. […] Six days after the last stimulation, the antigen-specific responses of induced CTLs were evaluated by ^51Cr release assay and IFN-γ ELISPOT assay.
CD8 T cells sorted from PBMCs were incubated with autologous mononuclear cell (monocyte)-derived DCs pulsed with each peptide. After three stimulations, cytocidal effect against peptide-pulsed T2 cells was evaluated by ^51Cr release assay (FIG. 4A) and IFN-γ ELISPOT assay.

PANC1 = test: 51Cr release assay of peptide-induced human CTLs against cancer cell line; conditions: CTLs from healthy donors
From the text: as §1
(§2) PBMCs derived from heparinized blood of HLA-A2 positive pancreatic cancer patients, gastric cancer patients, colorectal cancer patients, or healthy donors were isolated by Ficoll-Conray density gradient centrifugation. […] DCs were pulsed with 20 μg/mL of a candidate peptide in the presence of 4 μg/mL β2-microglobulin (Sigma-Aldrich, St. Louis, Mo., USA) for two hours at 37° C. in AIM-V (Invitrogen) containing 2% heat-inactivated autologous plasma. These DCs were then irradiated (40 Gy) and incubated with CD8 positive cells. The incubation was carried out in 24-well plates, which were prepared to contain in each well 2 mL of AIM-V supplemented with 2% autologous plasma, 1×10^5 peptide-pulsed DCs, 2×10^6 CD8^+ T cells, and 5 ng/mL of human recombinant IL-7 (Wako, Osaka, Japan). After two days, these cultures were supplemented with human recombinant IL-2 (PeproTec Inc.) to a final concentration of 20 IU/mL. Two additional weekly stimulations with the same peptide-pulsed autologous DCs using the same procedure were carried out on day 7 and day 14. Six days after the last stimulation, the antigen-specific responses of induced CTLs were evaluated by ^51Cr release assay and IFN-γ ELISPOT assay.

HCT116 = test: as above; conditions: for cytotoxicity to HCT116 (CDH3+, HLA-A2+): CTLs from healthy donors; for cytotoxicity to HCT116: FIG. 4C: CTLs from PBMCs of HLA-A2 positive cancer patients
From the text: as §1, §2

SKHep1 = test: as above; conditions: CTLs from healthy donors
From the text: as §1, §2

PK8 = test: as above; conditions: CTLs from healthy donors
From the text: as §1, §2

HSC3 = test: as above; conditions: CTLs from healthy donors
From the text: as §1, §2

SKHep1/CDH3 = test: as above; conditions: FIG. 4C: CTLs from PBMCs of HLA-A2 positive cancer patients
Experimental: as §1
(§3) After 60 hours, the culture medium was recovered and the viral particles were pelleted by ultracentrifugation (50,000×g, two hours).
as §2

PANC1/CDH3 = test: as above; conditions: for cytotoxicity to PANC1/CDH3: FIG. 4C: CTLs from PBMCs of HLA-A2 positive cancer patients
Experimental: as §1, §3, §2

SMILES	cytotoxicity (cytocidal effect) against peptide-pulsed T2 cells (T2 cells; listed as CDH3-4655-663)	cytotoxicity to PANC1 (CDH3−, HLA-A2+) (PANC1)	cytotoxicity to HCT116 (CDH3+, HLA-A2+) (HCT116)	cytotoxicity to HCT116 (HCT116)	cytotoxicity to SKHep1 (CDH3−, HLA-A2+) (SKHep1)	cytotoxicity to PK8 (CDH3+, HLA-A2−) (PK8)	cytotoxicity to HSC3 (CDH3+, HLA-A2+) (HSC3)	cytotoxicity to SKHep1/CDH3 (CDH3+, HLA-A2+) (SKHep1/CDH3)	cytotoxicity to PANC1/CDH3 (CDH3+, HLA-A2+) (PANC1/CDH3; CTLs from healthy donors)	cytotoxicity to PANC1/CDH3 (PANC1/CDH3)	cytotoxicity (cytocidal effect) against peptide-pulsed T2 cells (T2 cells; listed as CDH3-7757-765)
CC[C@H](C)[C@H](NC(=O)[C@@H](N)Cc1ccccc1)C(=O)N[C@@H](CC(C)C)C(=O)N1CCC[C@H]1C(=O)N[C@H](C(=O)N[C@@H](CC(C)C)C(=O)NCC(=O)N[C@@H](C)C(=O)N[C@H](C(=O)O)C(C)C)C(C)C [CDH3-4, FILPVLGAV] (H-FILPVLGAV-OH)	exhibited cytocidal effect; also recorded: exhibited cytotoxicity	did not exhibit the same effect	exhibited in healthy donors cytotoxicity	exhibited cytotoxicity	did not exhibit the same effect	did not exhibit the same effect	exhibited in healthy donors cytotoxicity	exhibited cytotoxicity	exhibited in healthy donors cytotoxicity	exhibited cytotoxicity	
CC[C@H](C)[C@H](NC(=O)[C@@H](NC(=O)[C@@H](N)Cc1ccccc1)[C@@H](C)CC)C(=O)N[C@@H](CCC(=O)O)C(=O)N[C@@H](CC(N)=O)C(=O)N[C@@H](CC(C)C)C(=O)N[C@@H](CCCCN)C(=O)N[C@@H](C)C(=O)N[C@@H](C)C(=O)O [CDH3-7, FIIENLKAA] (H-FIIENLKAA-OH)				exhibited cytotoxicity			exhibited cytotoxicity	exhibited cytotoxicity		exhibited cytotoxicity	exhibited cytocidal effect; also recorded: exhibited cytotoxicity
CC(C)C[C@H](NC(=O)[C@@H](NC(=O)[C@H](C)NC(=O)[C@H](Cc1ccc(O)cc1)NC(=O)[C@@H](NC(=O)[C@H](CC(N)=O)NC(=O)[C@H](Cc1ccc(O)cc1)NC(=O)[C@H](CC(C)C)NC(=O)[C@@H](N)CO)[C@@H](C)O)[C@@H](C)O)C(=O)O [HIV peptide, SLYNTYATL, reference compound] (H-SLYNTYATL-OH)			did not exhibit cytotoxicity; also recorded: did not show cytotoxicity								

Reference: patent US8455444B2, “CDH3 peptide and medicinal agent comprising the same” (Oncotherapy Science, Inc., priority 2007, dated 2013)
